Assay results from patent US20200038416A1, “METHODS OF TREATING CARDIAC CONDUCTION DEFECTS USING AMINOSTEROL COMPOSITIONS” (Enterin, Inc., priority 2018, published 2020).
Entries after “also recorded” stand apart in the source; their conditions may differ.

Columns and labels:
patients with PD [1] = assay: Sleep diary: total sleep time and REM-behavior disorder; format: in vivo, human
Experimental: FIG. 3 is a chart of total sleep time in relation to squalamine dose. Total sleep time was obtained from the sleep diary by subtracting awake time during the night from total time spent in bed. Total sleep time per night was logged for each patient at baseline, each dosing period and at washout, and the means were determined. The light grey bar represents the baseline value for each cohort at a given dose level and the dark grey bar represents the value for the same cohort at the stated dose of squalamine (ENT-01; Kenterin™). The number of patients represented at each value are: Baseline, 33; 75 mg, 21; 100 mg, 28; 125 mg, 18; 150 mg, 15; 175 mg, 12; 200 mg, 7; 225 mg, 3; 250 mg, 2; washout, 33. P values were as follows: 75 mg, p=0.4; 100 mg, p=0.1; 125 mg, p=0.3; 150 mg, p=0.07; 175 mg, p=0.03; 200 mg, p=0.3; 225 mg, p=0.5; 250 mg, p=0.3; wash-out, p=0.04 (paired t test).
(5) Sleep Diary (participants completed a sleep diary on a daily basis throughout the study. The diaries included time into bed and estimated time to sleep as well as wake time and duration during the night.); […]

patients with PD [2] = assay: Circadian rhythm of wrist skin temperature; format: in vivo, human; conditions: 12 evaluable patients; for markers of circadian function (IS, RA, CFI, IV) of wrist skin temperature: fixed dose versus baseline
Experimental: (6) I-Button Temperature Assessment. The I-Button is a small, rugged self-sufficient system that measures temperature and records the results in a protected memory section. The Thermochron I-Button DS1921H (Maxim Integrated, Dallas, Tex.) was used for skin temperature measurement. I-Buttons were programmed to sample every 10 mins., and attached to a double-sided cotton sport wrist band using Velcro, with the sensor face of the I-Button placed over the inside of the wrist, on the radial artery of the dominant hand. Subjects removed and replaced the data logger when necessary (i.e., to have a bath or shower). The value of skin temperature assessment in sleep research is that the endogenous skin warming resulting from increased skin blood flow is functionally linked to sleep propensity. From the collected data, the mesor, amplitude, acrophase (time of peak temperature), Rayleight test (an index of interdaily stability), mean waveforms are calculated.);
Assessments were made at baseline and at the end of the fixed dose and washout periods. Circadian system status was evaluated by continuously monitoring wrist skin temperature (Thermochron iButton DS1921H; Maxim, Dallas) following published procedures (Sarabia et al. 2008).
Circadian rhythm of skin temperature was evaluable in 12 patients (i.e., those who had recordings that extended from baseline through washout). Circadian system functionality was evaluated by continuously monitoring wrist skin temperature using a temperature sensor (Thermochron iButton DS1921H; Maxim, Dallas, Tex.) (Sarabia et al. 2008). […]
Briefly, this analysis includes the following parameters: (i) the inter-daily stability (the constancy of 24-hour rhythmic pattern over days, IS); (ii) intra-daily variability (rhythm fragmentation, IV); (iii) average of 10-minute intervals for the 10 hours with the minimum temperature (L10); (iv) average of 10-minute intervals for the 5 hours with the maximum temperature (M5) and the relative amplitude (RA), which was determined by the difference between M5 and L10, divided by the sum of both. […]

αS = αS (Homo sapiens, UniProt P37840); conditions: in vitro; cited from earlier work
[3] = test system: patients with PD and constipation; assay: Phase 2 trial Stage 2: bowel function / stool related indices on daily oral dosing; format: in vivo, human; conditions: for CSBM/week in the randomized cohort, Treatment (n = 6): baseline 0.8
Experimental: Following successful screening, all subjects underwent a 14-day run-in period where the degree of constipation was assessed through a validated daily log (Zinsmeister et al. 2013) establishing baseline CSBMs/week. Subjects with an average of <3 CSBMs/week proceeded to dosing.
In Stage 2, 34 patients were evaluated.
The primary efficacy outcome variable was whether or not a subject was a “success” or “failure”. This is an endpoint based on subject diary entries for the “fixed dose” period prior to the endpoint assessment defined as average complete stool frequency increase by 1 or more over baseline, or 3 or more complete spontaneous stools/week. The subject was deemed a “success” if s/he met one or more of the criteria listed above, otherwise the subject was deemed a “failure”. The primary analysis was based on all subjects with a baseline assessment and an assessment at the end of the “fixed-dose” period and was a comparison of the proportion of successes with 0.10 (the null hypothesis corresponding to no treatment effect).

Compound: CC(C)[C@@H](CC[C@@H](C)[C@H]1CC[C@H]2[C@@H]3[C@H](O)C[C@H]4C[C@@H](NCCCNCCCCN)CC[C@]4(C)[C@H]3CC[C@]12C)OS(=O)(=O)O (single isomer, unassigned) [squalamine (ENT-01), squalamine]
- RBD and total sleep time (patients with PD [1]; dose escalation, Stage 2): improved progressively in a dose-dependent manner
- total sleep time versus baseline by dose (patients with PD [1]; doses beyond 125 mg): consistently higher than baseline beyond 125 mg
- markers of circadian function (IS, RA, CFI, IV) of wrist skin temperature (patients with PD [2]): improved all markers of healthy circadian function
- markers of circadian function (IS, RA, CFI, IV) of wrist skin temperature (patients with PD [2]; listed as ENT-01): significant positive impact; also recorded: improved all markers of healthy circadian function
- circadian parameters during wash-out period (patients with PD [2]; wash-out versus baseline (IS, CFI)): improvement persisted for several of these circadian parameters
- displacement of αS from membranes (αS): can displace αS from membranes in vitro
- CSBM/week in the randomized cohort, group later randomized to Placebo (n = 9) ([3]; Fixed dose period (on drug, before randomization), baseline 1.6): 3.3 CSBM/week
- CSBM/week in the randomized cohort, Treatment (n = 6) ([3]; Fixed dose period): 3.2 CSBM/week
- CSBM/week in the randomized cohort, Treatment (n = 6) ([3]; Randomized period (4-6 days continued treatment)): 2.4 CSBM/week
- CSBM/week in the randomized cohort, Treatment (n = 6) ([3]; Washout): 0.9 CSBM/week
